According to PubChem BioAssay AID2060900 (Molecular Pharmacology Branch, DTP, NCI, 2025):

System: 521955-158-R2-J5-PDC complex spheroids, viability
Experiment: Anticancer human tumor 521955-158-R2-J5-PDC patient-derived pancreatic carcinoma cell line growth inhibition [RAS]
Conditions: for IC50: curve of first compound; for viability, T/C: stronger effect = lower value
Method in brief: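 Tumour cells grown as complex spheroids with HUVEC endothelial cells and mesenchymal stem cells, treated with RAS pathway inhibitor combinations. Each agent spans half-log steps from near clinical Cmax, or 10 microM where Cmax is unknown.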

[1] = second compound 0.000949 µM, first compound 0.0316 µM
[2] = second compound 0.000949 µM, first compound 0.1 µM
[3] = second compound 0.000949 µM, first compound 0.316 µM
[4] = second compound 0.000949 µM, first compound 1 µM
[5] = second compound 0.000949 µM, first compound 3.16 µM
[6] = second compound 0.000949 µM, first compound 10 µM
[7] = second compound 0.003 µM, first compound 0.0316 µM
[8] = second compound 0.003 µM, first compound 0.1 µM
[9] = second compound 0.003 µM, first compound 0.316 µM
[10] = second compound 0.003 µM, first compound 1 µM
[11] = second compound 0.003 µM, first compound 3.16 µM
[12] = second compound 0.003 µM, first compound 10 µM
[13] = second compound 0.00949 µM, first compound 0.0316 µM
[14] = second compound 0.00949 µM, first compound 0.1 µM
[15] = second compound 0.00949 µM, first compound 0.316 µM
[16] = second compound 0.00949 µM, first compound 1 µM
[17] = second compound 0.00949 µM, first compound 3.16 µM
[18] = second compound 0.00949 µM, first compound 10 µM
[19] = second compound 0.03 µM, first compound 0.0316 µM
[20] = second compound 0.03 µM, first compound 0.1 µM
[21] = second compound 0.03 µM, first compound 0.316 µM
[22] = second compound 0.03 µM, first compound 1 µM
[23] = second compound 0.03 µM, first compound 3.16 µM
[24] = second compound 0.03 µM, first compound 10 µM
[25] = second compound 0.0949 µM, first compound 0.0316 µM
[26] = second compound 0.0949 µM, first compound 0.1 µM
[27] = second compound 0.0949 µM, first compound 0.316 µM
[28] = second compound 0.0949 µM, first compound 1 µM
[29] = second compound 0.0949 µM, first compound 3.16 µM
[30] = second compound 0.0949 µM, first compound 10 µM
[31] = second compound 0.3 µM, first compound 0.0316 µM
[32] = second compound 0.3 µM, first compound 0.1 µM
[33] = second compound 0.3 µM, first compound 0.316 µM
[34] = second compound 0.3 µM, first compound 1 µM
[35] = second compound 0.3 µM, first compound 3.16 µM
[36] = second compound 0.3 µM, first compound 10 µM
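Further: compound exposure lasted seven days before the viability read.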
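Wherever viability, T/C is given: spheroids also contain HUVEC endothelial cells and mesenchymal stem cells as stroma.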

Compound: CC1(O)CCCC1n1c(=O)c(C(F)F)cc2cnc(NC3CCN(S(C)(=O)=O)CC3)nc21 (stereo not drawn) + CCn1c(-c2cccnc2C(C)OC)c2c3cc(ccc31)N1CCOC(CC(NC(=O)C(C(C)C)N(C)C(=O)C3(F)CCN(C(=O)C#CC(C)(C)N(C)C)CC3)C(=O)N3CCCC(N3)C(=O)OCC(C)(C)C2)C1
- IC50 (second compound 0.000949 µM): 4.9 µM
- IC50 (second compound 0.003 µM): 5.09 µM
- IC50 (second compound 0.00949 µM): 4.91 µM
- IC50 (second compound 0.03 µM): 4.99 µM
- IC50 (second compound 0.0949 µM): 4.43 µM
- IC50 (second compound 0.3 µM): 3.76 µM
- viability, T/C [1]: 68.5%
- viability, T/C [2]: 66.1%
- viability, T/C [3]: 61.6%
- viability, T/C [4]: 59.4%
- viability, T/C [5]: 103%
- viability, T/C [6]: 14.8%
- viability, T/C [7]: 89.5%
- viability, T/C [8]: 67.8%
- viability, T/C [9]: 49.5%
- viability, T/C [10]: 82.7%
- viability, T/C [11]: 89.2%
- viability, T/C [12]: 13.5%
- viability, T/C [13]: 88.1%
- viability, T/C [14]: 71.1%
- viability, T/C [15]: 60.2%
- viability, T/C [16]: 62.1%
- viability, T/C [17]: 93.5%
- viability, T/C [18]: 9.48%
- viability, T/C [19]: 89.7%
- viability, T/C [20]: 77.1%
- viability, T/C [21]: 47.7%
- viability, T/C [22]: 76.1%
- viability, T/C [23]: 78.9%
- viability, T/C [24]: 13.6%
- viability, T/C [25]: 67.6%
- viability, T/C [26]: 61.1%
- viability, T/C [27]: 47.3%
- viability, T/C [28]: 63.1%
- viability, T/C [29]: 90.5%
- viability, T/C [30]: 11.6%
- viability, T/C [31]: 60.8%
- viability, T/C [32]: 37.9%
- viability, T/C [33]: 45.5%
- viability, T/C [34]: 58%
- viability, T/C [35]: 88.2%
- viability, T/C [36]: 9.67%

Compound: CCC(CC)c1cc(NC2CCC(N)C2)n2nccc2n1 (stereo not drawn) + CCn1c(-c2cccnc2C(C)OC)c2c3cc(ccc31)N1CCOC(CC(NC(=O)C(C(C)C)N(C)C(=O)C3(F)CCN(C(=O)C#CC(C)(C)N(C)C)CC3)C(=O)N3CCCC(N3)C(=O)OCC(C)(C)C2)C1
- IC50 (second compound 0.000949 µM): 1.9 µM
- IC50 (second compound 0.003 µM): 1.91 µM
- IC50 (second compound 0.00949 µM): 1.96 µM
- IC50 (second compound 0.03 µM): 1.93 µM
- IC50 (second compound 0.0949 µM): 1.73 µM
- IC50 (second compound 0.3 µM): 1.7 µM
- viability, T/C [1]: 93.9%
- viability, T/C [2]: 92.6%
- viability, T/C [3]: 104%
- viability, T/C [4]: 122%
- viability, T/C [5]: 6.03%
- viability, T/C [6]: 9.22%
- viability, T/C [7]: 94.6%
- viability, T/C [8]: 108%
- viability, T/C [9]: 106%
- viability, T/C [10]: 116%
- viability, T/C [11]: 5.99%
- viability, T/C [12]: 6.76%
- viability, T/C [13]: 113%
- viability, T/C [14]: 97.7%
- viability, T/C [15]: 116%
- viability, T/C [16]: 117%
- viability, T/C [17]: 7.29%
- viability, T/C [18]: 6.73%
- viability, T/C [19]: 99.2%
- viability, T/C [20]: 101%
- viability, T/C [21]: 105%
- viability, T/C [22]: 117%
- viability, T/C [23]: 8.41%
- viability, T/C [24]: 5.64%
- viability, T/C [25]: 83.1%
- viability, T/C [26]: 75.6%
- viability, T/C [27]: 97.4%
- viability, T/C [28]: 100%
- viability, T/C [29]: 6.48%
- viability, T/C [30]: 6.71%
- viability, T/C [31]: 84.9%
- viability, T/C [32]: 75.4%
- viability, T/C [33]: 88.1%
- viability, T/C [34]: 88.6%
- viability, T/C [35]: 9.96%
- viability, T/C [36]: 5.87%

Compound: Cc1nc(N2CCC3(CC2)COC(C)C3N)c(CO)nc1Sc1ccnc(N)c1Cl (stereo not drawn) + CCn1c(-c2cccnc2C(C)OC)c2c3cc(ccc31)N1CCOC(CC(NC(=O)C(C(C)C)N(C)C(=O)C3(F)CCN(C(=O)C#CC(C)(C)N(C)C)CC3)C(=O)N3CCCC(N3)C(=O)OCC(C)(C)C2)C1
- IC50 (second compound 0.000949 µM): > 10 µM
- IC50 (second compound 0.003 µM): 5.11 µM
- IC50 (second compound 0.00949 µM): 3.12 µM
- IC50 (second compound 0.03 µM): 1.19 µM
- IC50 (second compound 0.0949 µM): 4.39 µM
- IC50 (second compound 0.3 µM): 0.546 µM
- viability, T/C [1]: 72.8%
- viability, T/C [2]: 64%
- viability, T/C [3]: 50.8%
- viability, T/C [4]: 59.4%
- viability, T/C [5]: 52.6%
- viability, T/C [6]: 50.8%
- viability, T/C [7]: 74.3%
- viability, T/C [8]: 61.3%
- viability, T/C [9]: 73.6%
- viability, T/C [10]: 61.4%
- viability, T/C [11]: 49.4%
- viability, T/C [12]: 46.4%
- viability, T/C [13]: 75.7%
- viability, T/C [14]: 61.8%
- viability, T/C [15]: 61.6%
- viability, T/C [16]: 50.4%
- viability, T/C [17]: 50.1%
- viability, T/C [18]: 48.4%
- viability, T/C [19]: 83%
- viability, T/C [20]: 64.4%
- viability, T/C [21]: 54.2%
- viability, T/C [22]: 49.2%
- viability, T/C [23]: 50.8%
- viability, T/C [24]: 47%
- viability, T/C [25]: 68%
- viability, T/C [26]: 66.3%
- viability, T/C [27]: 55.8%
- viability, T/C [28]: 54.1%
- viability, T/C [29]: 55%
- viability, T/C [30]: 45.6%
- viability, T/C [31]: 59.1%
- viability, T/C [32]: 46.3%
- viability, T/C [33]: 53.9%
- viability, T/C [34]: 51.6%
- viability, T/C [35]: 45.4%
- viability, T/C [36]: 42.8%

Compound: NC1c2ccccc2OC12CCN(c1cnc3c(N4CCCc5ncccc54)n[nH]c3n1)CC2 (stereo not drawn) + CCn1c(-c2cccnc2C(C)OC)c2c3cc(ccc31)N1CCOC(CC(NC(=O)C(C(C)C)N(C)C(=O)C3(F)CCN(C(=O)C#CC(C)(C)N(C)C)CC3)C(=O)N3CCCC(N3)C(=O)OCC(C)(C)C2)C1
- IC50 (second compound 0.000949 µM): 4.5 µM
- IC50 (second compound 0.003 µM): > 10 µM
- IC50 (second compound 0.00949 µM): 0.987 µM
- IC50 (second compound 0.03 µM): > 10 µM
- IC50 (second compound 0.0949 µM): 1.2 µM
- IC50 (second compound 0.3 µM): 0.129 µM
- viability, T/C [1]: 62.7%
- viability, T/C [2]: 61.4%
- viability, T/C [3]: 53.5%
- viability, T/C [4]: 52.3%
- viability, T/C [5]: 50.2%
- viability, T/C [6]: 50%
- viability, T/C [7]: 64%
- viability, T/C [8]: 51%
- viability, T/C [9]: 58.8%
- viability, T/C [10]: 55.4%
- viability, T/C [11]: 52.7%
- viability, T/C [12]: 49.8%
- viability, T/C [13]: 53.7%
- viability, T/C [14]: 48.1%
- viability, T/C [15]: 51.8%
- viability, T/C [16]: 52.5%
- viability, T/C [17]: 53.2%
- viability, T/C [18]: 43.6%
- viability, T/C [19]: 60.3%
- viability, T/C [20]: 56.8%
- viability, T/C [21]: 44.2%
- viability, T/C [22]: 51.3%
- viability, T/C [23]: 58.9%
- viability, T/C [24]: 47.1%
- viability, T/C [25]: 52.9%
- viability, T/C [26]: 54.4%
- viability, T/C [27]: 43.3%
- viability, T/C [28]: 49.7%
- viability, T/C [29]: 56.5%
- viability, T/C [30]: 45.7%
- viability, T/C [31]: 51.3%
- viability, T/C [32]: 46.3%
- viability, T/C [33]: 51.9%
- viability, T/C [34]: 51.3%
- viability, T/C [35]: 49.5%
- viability, T/C [36]: 42.9%
